Experimental findings from patent US20070009597A1, “Active substance combination comprising a compound with npy receptor affinity and a compound with 5-ht6 receptor affinity” (LABORATORIOS DEL DR. ESTEVE S.A., priority 2003, published 2007) are described below.

For data set [1], the target named is T1, recombinant human 5HT6 receptor (Homo sapiens, UniProt P50406).
T1 construct: purchased Receptor Biology; host or cells: HEK-293
In words: Binding to the 5HT6 serotonin receptor ([3H]-LSD, HEK-293 cell membranes). How it is done:
Binding to the 5HT6 Serotonin Receptor
The respective part of the literature descriptions is incorporated here by reference and form part of the disclosure. […] The assays are carried out in triplicate.

T1 sequence (P50406 whole entry): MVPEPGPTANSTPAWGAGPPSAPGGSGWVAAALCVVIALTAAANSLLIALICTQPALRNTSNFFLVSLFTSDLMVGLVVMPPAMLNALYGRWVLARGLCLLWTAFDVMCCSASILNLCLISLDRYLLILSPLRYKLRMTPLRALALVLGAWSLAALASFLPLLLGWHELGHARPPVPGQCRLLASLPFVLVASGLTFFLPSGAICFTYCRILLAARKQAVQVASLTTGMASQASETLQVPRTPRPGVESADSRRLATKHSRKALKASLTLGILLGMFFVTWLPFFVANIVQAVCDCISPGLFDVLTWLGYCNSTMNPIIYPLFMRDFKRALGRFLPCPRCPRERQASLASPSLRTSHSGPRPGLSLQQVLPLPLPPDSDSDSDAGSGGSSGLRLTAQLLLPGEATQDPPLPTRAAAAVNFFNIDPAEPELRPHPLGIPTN

Take `O=C(CN1CCC(Nc2ccccc2CO)CC1)Nc1ccc2c(c1)CCC2=O`: the melting point (commonly the temperature, or range, at which the solid turns liquid) lay within 138 to 140 °C. Still for that read-out and setting: with `CN(C)CCn1ccc2cc(NS(=O)(=O)c3cccc4nsnc34)ccc21` [Example 10e, N-[1-(2-dimethylaminoethyl)-1H-indole-5-yl]-benzo[1,2,5]thiadiazole-4-sulfonamide] the figure was 166 to 168 °C. Take `CCN(CC)CCc1c[nH]c2ccc(NS(=O)(=O)c3ccc4ccccc4c3)cc12` [Example 17c, N-[3-(2-diethylaminoethyl)-1H-indol-5-yl]naphthalene-2-sulphonamide]: the Ki (in general, a measure of affinity in units of concentration, obtained from inhibition or displacement) in data set [1] (table 1c, compounds of general formula (Ic)) was 5.3 nM. For `CN(C)CCn1ccc2cc(NS(=O)(=O)c3cc(Cl)c(Cl)s3)ccc21` [Example 20e, N-[1-(2-dimethylaminoethyl)-1H-indole-5-yl]-4,5-dichlorothiophene-2-sulfonamide], the Ki in data set [1] (table 1e, compounds of general formula (Ie)) is 84.8 nM.
